Reference: paper PMC11414412, “Design and synthesis new indole-based aromatase/iNOS inhibitors with apoptotic antiproliferative activity” (Frontiers in Chemistry, 2024)

Legend:
[1] = tested on: MCF-7 cells; assay: Antiproliferative assay, MCF-7; type: cell-based; conditions: Homo sapiens, MCF7; MCF-7 breast cancer cell line; read-out: Antiproliferative activity IC50 ± SEM, MCF-7
Description: (§1) 4.2.2. Assay for antiproliferative effect
(§2) To explore the antiproliferative potential of compounds propidium iodide fluorescence assay was performed using different cell lines such as Panc-1 (pancreas cancer cell line), MCF-7 (breast cancer cell line), HT-29 (colon cancer cell line) and A-549 (epithelial cancer cell line), respectively. To calculate the total nuclear DNA, a fluorescent dye (propidium iodide, PI) is used which can attach to the DNA, thus offering a quick and precise technique. PI cannot pass through the cell membrane and its signal intensity can be considered as directly proportional to quantity of cellular DNA. Cells whose cell membranes are damaged or have changed permeability are counted as dead ones. The assay was performed by seeding the cells of different cell lines at a density of 3000-7500 cells/well (in200μl medium) in culture plates followed by incubation for 24h at 37 °C in humidified 5%CO2/95% air atmospheric conditions. The medium was removed; the compounds were added to the plates at 10 μM concentrations (in 0.1% DMSO) in triplicates, followed by incubation for 48h. DMSO (0.1%) was used as control. After incubation, medium was removed followed by the addition of PI (25 μl, 50μg/mL in water/medium) to each well of the plates. At - 80 °C, the plates were allowed to freeze for 24 h, followed by thawing at 25 °C. A fluorometer (Polar-Star BMG Tech) was used to record the readings at excitation and emission wavelengths of 530 and 620 nm for each well. The percentage cytotoxicity of compounds was calculated using […]
(§3) Where ATC= Absorbance of treated cells and AC= Absorbance of control. Erlotinib was used as positive control in the assay.

[2] = tested on: HT-29 cells; assay: Antiproliferative assay, HT-29; type: cell-based; conditions: Homo sapiens; HT-29 colon cancer cell line; read-out: Antiproliferative activity IC50 ± SEM, HT-29
Description: as §1, §2, §3

[3] = tested on: A-549 cells; assay: Antiproliferative assay, A-549; type: cell-based; conditions: Homo sapiens, A549; A-549 lung cancer cell line; read-out: Antiproliferative activity IC50 ± SEM, A-549
Description: as §1, §2, §3

[4] = Cell viability assay (MTT) on normal mammary epithelial cells; type: cell-based, human; conditions: human, MCF-10A normal mammary gland epithelial cells, MCF-10A normal cells, 4 days incubation
Description: This test investigates the effects of the new compounds 3–16 on normal cell lines to determine their safety. The normal human mammary gland epithelial (MCF-10 A) cell line was used to test the viability of the tested compounds. After 4 days of incubation on MCF-10 A cells within 50 µM of each investigated compound, cell viability was determined using the MTT assay ([Gomaa et al., 2020]; [Marzouk et al., 2020]).
The normal human mammary gland epithelial (MCF-10A) cell line was used to test the viability of the tested compounds. After 4 days of incubation on MCF-10A cells within 50 µM of each investigated compound, cell viability was determined using the MTT assay ([Gomaa et al., 2020]; [Marzouk et al., 2020]). Refer to Supplementary Appendix SA1 (supp. File) for more details.
4.2. Biological evaluation
4.2.1 Cell Viability assay (MTT assay)
MTT assay was performed to investigate the effect of the synthesized compounds on mammary epithelial cells (MCF-10A). The cells were propagated in medium consisting of Ham's F-12 medium/ Dulbecco's modified Eagle's medium (DMEM) (1:1) supplemented with 10% foetal calf serum, 2 mM glutamine, insulin (10 μg/mL), hydrocortisone (500 ng/mL) and epidermal growth factor (20 ng/mL). Trypsin ethylenediamine tetra acetic acid (EDTA) was used to passage the cells after every 2-3 days. 96-well flat-bottomed cell culture plates were used to seed the cells at a density of 10^4 cells mL-1. The medium was aspirated from all the wells of culture plates after 24 h followed by the addition of synthesized compounds (in 200 μL medium to yield a final concentration of 0.1% (v/v) dimethyl sulfoxide) into individual wells of the plates. Four wells were designated to a single compound. The plates were allowed to incubate at 37°C for 96 h. Afterwards, the medium was aspirated and 3-[4,5-dimethylthiazol-2-yl]-2,5-diphenyltetrazolium bromide (MTT) (0.4 mg/mL) in medium was added to each well and subsequently incubated for 3 h. The medium was aspirated and 150 μL dimethyl sulfoxide (DMSO) was added to each well. The plates were vortexed followed by the measurement of absorbance at 540 nm on a microplate reader. The results were presented as inhibition (%) of proliferation in contrast to controls comprising 0.1%

[5] = tested on: four human cancer cell lines (A-549, MCF-7, Panc-1, HT-29); assay: Antiproliferative assay, average over four cancer cell lines (GI50); type: cell-based; conditions: for IC50: Homo sapiens, average of IC50 against A-549, MCF-7, Panc-1, HT-29
Description: See Supplementary Appendix SA1 for more details.
as §1
To explore the antiproliferative potential of compounds propidium iodide fluorescence assay was performed using different cell lines such as Panc-1 (pancreas cancer cell line), MCF-7 (breast […]
respectively. To calculate the total nuclear DNA, a fluorescent dye (propidium iodide, PI) is used which can attach to the DNA, thus offering a quick and precise technique. PI cannot pass through the cell membrane and its signal intensity can be considered as directly proportional to quantity of cellular DNA. Cells whose cell membranes are damaged or have changed permeability are counted as dead ones. The assay was performed by seeding the cells of different cell lines at a density of […]
The medium was removed; the compounds were added to the plates at 10 μM concentrations (in 0.1% DMSO) in triplicates, followed by incubation for 48h. DMSO (0.1%) was used as control. After incubation, medium was removed followed by the addition of PI (25 μl, 50μg/mL in water/medium) to each well of the plates. At - 80 °C, the plates were allowed to freeze for 24 h, followed by thawing at 25 °C. A fluorometer (Polar-Star BMG Tech) was used to record the readings at excitation and emission wavelengths of 530 and 620 nm for each well. The percentage cytotoxicity of compounds was calculated using […]
Where ATC= Absorbance of treated cells and AC= Absorbance of control. […]
positive control in the assay.

[6] = tested on: Panc-1 cells; assay: Antiproliferative assay, Panc-1; type: cell-based; conditions: Homo sapiens; Panc-1 pancreatic cancer cell line; read-out: Antiproliferative activity IC50 ± SEM, Panc-1
Description: as §1, §2, §3

[7] = target: T1, aromatase (CYP19) (Homo sapiens, UniProt P11511); assay: Aromatase inhibitory assay (Gentest kit, DBF fluorometric substrate)
T1 sequence (P11511 1-503): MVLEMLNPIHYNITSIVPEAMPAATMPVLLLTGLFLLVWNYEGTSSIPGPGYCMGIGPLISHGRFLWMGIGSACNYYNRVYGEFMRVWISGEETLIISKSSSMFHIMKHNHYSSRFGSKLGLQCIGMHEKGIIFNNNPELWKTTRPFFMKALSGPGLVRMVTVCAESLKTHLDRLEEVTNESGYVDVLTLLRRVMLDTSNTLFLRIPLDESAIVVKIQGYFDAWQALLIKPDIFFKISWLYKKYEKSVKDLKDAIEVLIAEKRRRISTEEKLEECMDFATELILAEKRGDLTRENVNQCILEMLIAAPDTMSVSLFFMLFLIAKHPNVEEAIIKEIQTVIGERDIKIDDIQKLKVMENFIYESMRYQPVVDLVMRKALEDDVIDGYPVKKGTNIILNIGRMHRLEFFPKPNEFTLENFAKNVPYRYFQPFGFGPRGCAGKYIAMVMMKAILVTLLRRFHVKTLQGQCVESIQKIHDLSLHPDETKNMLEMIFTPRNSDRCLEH
Description: The aromatase inhibitory effect was performed using the method reported by Stressor et al.[35].
This method was carried out according to the Gentest kit using CYP19 enzyme and DBF as a
fluorometric substrate. DBF was dealkylated by aromatase and then hydrolyzed to give the
fluorescein product. Briefly, 100 μL of cofactor, containing 78.4 μL of 50 mM phosphate buffer
(pH 7.4); 20 μL of 20x NADPH-generating system (26 mM NADP+, 66 mM glucose-6-phosphate,
and 66 mM MgCl2); and 1.6 μL of 100 U/mL glucose-6-phosphate dehydrogenase, was pipetted
into a 96-well plate and preincubated in 37 °C (water bath) for 10 min. The reaction was initiated
by addition of 100 μL of enzyme/substrate mixture containing 77.3 μL of 50 mM
phosphate buffer (pH 7.4); 12.5 μL of 16 pmol/mL CYP19; 0.2 μL of 0.2 mM DBF, and 10 μL of
0.25 mM diluted tested sample or 10% DMSO as a negative control or letrozole as a positive
control. Fluorescence signal was recorded using an excitation wavelength of 490 nm and emission
Percentage of inhibition (%inhibition) was calculated
as shown in Equation (1).
assayed in triplicate. Finally, IC50 values were determined by plot of concentrations versus %

SMILES	IC50 [1]	IC50 [2]	IC50 [3]	IC50 [5]	IC50 [6]	melting point	IC50 [7]	Fold less potent than compound 12 (GI50) [5]	viability at 4 days, 50 µM [4]
CCc1c(C(=O)NC(C(=O)OCc2ccccc2)C(C)O)[nH]c2ccc(Cl)cc12 (stereo not shown) [Compound 3, Benzyl 2-(5-chloro-3-ethyl-1H-indol-2-carboxamido)-3-hydroxybutanoate]	62 ± 5 nM	60 ± 5 nM	57 ± 5 nM	59 nM	58 ± 5 nM	–	–	–	91%
CCc1c(C(=O)NC(C(C)=O)C(=O)OCc2ccccc2)[nH]c2ccc(Cl)cc12 (stereo not shown) [Compound 4, benzyl 2-(5-chloro-3-ethyl-1h-indol-2-carboxamido)-3-oxobutanoate]	65 ± 6 nM	64 ± 6 nM	59 ± 5 nM	62 nM	60 ± 5 nM	–	–	–	89%
CCc1c2cc(Cl)ccc2n2c(C)c(C(=O)O)[nH]c(=O)c12 [Compound 6, 8-chloro-10-ethyl-4-methyl-1-oxo-1,2-dihydropyrazino [1,2-a]indole-3-carboxylic acid]	68 ± 6 nM	66 ± 6 nM	65 ± 6 nM	66 nM	64 ± 6 nM	270 to 272 °C	–	–	92%
CCOC(=O)C(Cc1ccccc1)NC(=O)c1[nH]c2ccc(Cl)cc2c1CC (stereo not shown) [Compound 8, ethyl 2-(5-chloro-3-ethyl-1h-indole-2-carboxamido)-3-phenylpropanoate]	40 ± 3 nM	38 ± 3 nM	37 ± 3 nM	38 nM	37 ± 3 nM	–	33 ± 3 nM	–	92%
CCc1c2n(c3ccc(Cl)cc13)C(=O)C(Cc1ccccc1)NC2=O (stereo not shown) [Compound 9, 3-benzyl-8-chloro-10-ethyl-2,3-dihydropyrazino [1,2-a] indole-1,4-dione]	50 ± 4 nM	50 ± 5 nM	48 ± 4 nM	49 nM	47 ± 4 nM	196 to 198 °C	–	–	91%
CCc1c2n(c3ccc(Cl)cc13)C(O)C(Cc1ccccc1)NC2=O (stereo not shown) [Compound 10, 3-benzyl-8-chloro-10-ethyl-4-hydroxy-3,4-dihydropyrazino [1,2-a] indol-1(2H)-one]	56 ± 5 nM	54 ± 5 nM	53 ± 5 nM	54 nM	54 ± 5 nM	160 to 162 °C	–	–	89%
C#Cc1cccc(Nc2ncnc3cc(OCCOC)c(OCCOC)cc23)c1 [Erlotinib, reference compound]	40 ± 3 nM	30 ± 3 nM	30 ± 3 nM	–	30 ± 3 nM	–	–	–	–

The next lines start with results.

IC50 [1]	IC50 [2]	IC50 [3]	IC50 [5]	IC50 [6]	melting point	IC50 [7]	Fold less potent than compound 12 (GI50) [5]	SMILES	viability at 4 days, 50 µM [4]
43 ± 4 nM	42 ± 4 nM	40 ± 4 nM	41 nM	40 ± 4 nM	–	–	1.7 fold	CCc1c2cc(Cl)ccc2n2cc(Cc3ccccc3)[nH]c(=O)c12 [Compound 11, 3-Benzyl-8-chloro-10-ethylpyrazino[1,2-a]indol-1(2H)-one]	92%
36 ± 3 nM	34 ± 3 nM	34 ± 3 nM	35 nM	35 ± 3 nM	210 to 212 °C	28 ± 2 nM	–	CCc1c(C(=O)NC(C(=O)OC)c2ccccc2)[nH]c2ccc(Cl)cc12 (stereo not shown) [Compound 13, Methyl 2-(5-chloro-3-ethyl-1h-indole-2-carboxamido)-2-phenylacetate]	91%
46 ± 4 nM	46 ± 4 nM	44 ± 4 nM	45 nM	44 ± 4 nM	202 to 204 °C	–	–	CCc1c2n(c3ccc(Cl)cc13)C(=O)C(c1ccccc1)NC2=O (stereo not shown) [Compound 14, 8-Chloro-10-ethyl-3-phenyl-2,3-dihydropyrazino [1,2-a] indole-1,4-dione]	90%
76 ± 7 nM	74 ± 7 nM	69 ± 6 nM	72 nM	72 ± 7 nM	213 to 215 °C	–	–	CCc1c2n(c3ccc(Cl)cc13)C(O)C(c1ccccc1)NC2=O (stereo not shown) [Compound 15, 8-Chloro-10-ethyl-4-hydroxy-3-phenyl-3,4-dihydropyrazino [1,2-a] indol-1(2H)-one]	92%
